The source of these data is patent publication US20260297042A1, “BIARYLAMIDE DERIVATIVES AND THEIR USE AS PKMYT1 INHIBITORS” (CANCER RESEARCH TECHNOLOGY LIMITED, priority 2023, published 2026).

Assay [1] has as its target T1, Human PKMYT1 (Homo sapiens, UniProt Q99640).
T1 construct: Human PKMYT1 75-362 was cloned as a TEV cleavable 6xHis fusion; 6xHis (TEV cleavable) (cleaved yes); made in house; host or cells: bacterial cells
T1 sequence (Q99640 75-362): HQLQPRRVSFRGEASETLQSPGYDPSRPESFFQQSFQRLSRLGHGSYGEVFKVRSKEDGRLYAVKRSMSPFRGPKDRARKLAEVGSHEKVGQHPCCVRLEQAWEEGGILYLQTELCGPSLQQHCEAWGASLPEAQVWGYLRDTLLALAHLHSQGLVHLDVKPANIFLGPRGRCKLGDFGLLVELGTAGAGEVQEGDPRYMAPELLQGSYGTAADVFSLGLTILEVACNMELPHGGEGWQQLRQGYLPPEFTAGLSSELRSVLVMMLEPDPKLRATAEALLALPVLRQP
The experiment in a line: PKMYT1 biochemical ADP-Glo enzymatic assay. Particulars: ADP-Glo. A digest of the protocol: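 Intrinsic ATPase activity of E. coli-expressed, tag-cleaved human PKMYT1 kinase domain (75-362), 15 nM, with 500 µM ATP in HEPES pH 7.5/MgCl2/EGTA/Brij-35, 1% DMSO, 60 min at 26 °C. ADP formed was read by ADP-Glo Max luminescence; IC50 from 10-point, 3-fold dilution curves.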

Assay [2] concerns the target T2, WEE1 (Homo sapiens, UniProt P30291).
T2 construct: purchased Thermo Fisher PR7373A
The experiment in a line: Selectivity versus WEE1 assay (ADP-Glo enzymatic assay). In kind it is biochemical. To be noted: for IC50: ADP-Glo; for PKMYT1 vs. WEE1 selectivity: fold difference in selectivity for PKMYT1 over WEE1. The gist of the method:
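Kinase at 15 nM final in 50 mM HEPES pH 7.5, 10 mM MgCl2, 1 mM EGTA, 0.01% Brij-35, 1% DMSO was started with 30 µM ATP and run 60 min at 26° C. ADP formed was read by ADP-Glo luminescence; IC50 came from dose-response curves.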
(In general: ADP-Glo first removes unused ATP, then detects ADP through luciferase.)

Assay [3] deals with OVCAR 3 cells. The experiment in a line: Cancer cell line proliferation assay, ATP-based cell viability (Cell Titre Glow), OVCAR 3 (CCNE1-amplified). Particulars: for Selectivity ratio KYSE30 Gl50 vs. OVCAR3 Gl50: KYSE30 (normal CCNE1) GI50 vs. OVCAR 3 (CCNE1-amplified) GI50. The method, then: (§1) Cancer cell lines with either normal (KYSE-30) or amplified CCNE1 expression (OVCAR 3 —ovarian cancer) were evaluated for their sensitivity to PKMYT1 inhibitors using Cell Titre Glow assay (Promega G7573) as endpoint to assess cell proliferation. The luminescence signal was read on a PHERAStar FS microplate reader (BMG Labtech). Data analysis was performed using Microsoft Excel® and Gl50 (concentration that achieves 50% cell growth proliferation inhibition) estimates generated with GraphPad Prism v9.

Assay [4] has as its system KYSE-30 cells. Kind of assay: Cancer cell line proliferation assay, ATP-based cell viability (Cell Titre Glow), KYSE-30 (normal CCNE1). Particulars: Homo sapiens, KYSE-30 cells (normal CCNE1), concentration that achieves 50% cell growth proliferation inhibition, read-out: KYSE30 Gl50. The method, then: as §1
Where [5] appears, read: 15 nM PKMYT1 kinase domain, 500 µM ATP, 60 minutes at 26° C., banded.
[6] abbreviates: 15 nM WEE1, 60 minutes at 26° C., banded.
Where [7] appears, read: banded, ">N" = at least in this band but could be higher.
[8] abbreviates: PKMYT1 kinase domain 15 nM, banded values.

Broadly, the IC50 is the concentration that inhibits the measured activity by half. A lower IC50 goes with inhibition by little substance.

T2 sequence (P30291 whole entry): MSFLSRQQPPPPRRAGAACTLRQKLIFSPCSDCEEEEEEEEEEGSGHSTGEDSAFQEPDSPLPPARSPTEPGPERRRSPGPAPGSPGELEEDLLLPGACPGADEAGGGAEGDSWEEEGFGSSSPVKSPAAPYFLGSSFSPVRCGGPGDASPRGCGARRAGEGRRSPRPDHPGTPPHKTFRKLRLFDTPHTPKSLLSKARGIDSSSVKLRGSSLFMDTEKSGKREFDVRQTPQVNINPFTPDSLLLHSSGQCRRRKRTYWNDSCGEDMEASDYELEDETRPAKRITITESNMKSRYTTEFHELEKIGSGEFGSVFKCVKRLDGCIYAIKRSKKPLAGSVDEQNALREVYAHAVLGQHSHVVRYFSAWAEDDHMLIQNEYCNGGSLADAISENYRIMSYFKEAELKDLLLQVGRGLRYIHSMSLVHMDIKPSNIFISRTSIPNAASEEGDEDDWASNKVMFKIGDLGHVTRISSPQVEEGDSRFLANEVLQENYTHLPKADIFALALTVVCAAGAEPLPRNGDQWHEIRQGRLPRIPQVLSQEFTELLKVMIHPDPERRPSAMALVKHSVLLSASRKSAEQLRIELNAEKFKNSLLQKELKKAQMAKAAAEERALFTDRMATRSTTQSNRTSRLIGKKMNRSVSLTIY

In the case of `Cc1ccc(O)c(C)c1NC(=O)c1cnc(Nc2ccn(C3CCC3)n2)s1` [BAA-013, 2-[(1-cyclobutylpyrazol-3-yl)amino]-N-(3-hydroxy-2,6-dimethyl-phenyl)thiazole-5-carboxamide], the IC50 in assay [1] (setting [5]) is less than 0.05 µM; in assay [2] (setting [6]), 1 to 11 µM. Besides, the “PKMYT1 vs. WEE1 selectivity” value in assay [2] (setting [7]) is “W (10-<100 fold)”. The GI50 in assay [3] (Homo sapiens, OVCAR 3 cells (CCNE1-amplified), concentration that achieves 50% cell growth proliferation inhibition, read-out: OVCAR 3 Gl50) was 0.5 to 5 µM; in assay [4], greater than 5 µM. Further, in assay [3], the “Selectivity ratio KYSE30 Gl50 vs. OVCAR3 Gl50” value is “X (3-20 fold)”.
On to `Cc1ccc(O)c(C)c1NC(=O)c1cnc(Nc2ccn(CC(C)C)n2)s1` [BAA-016, N-(3-hydroxy-2,6-dimethyl-phenyl)-2-[(1-isobutylpyrazol-3-yl)amino]thiazole-5-carboxamide], for which the IC50 in assay [1] (setting [5]) is less than 0.05 µM; in assay [2] (setting [6]), 1 to 11 µM. The “PKMYT1 vs. WEE1 selectivity” value in assay [2] (setting [7]) was “W (10-<100 fold)”. Further, the “Selectivity ratio KYSE30 Gl50 vs. OVCAR3 Gl50” value in assay [3] was “X (3-20 fold)”. Moreover, the GI50 in assay [4] was 0.5 to 5 µM.
In the case of `Cc1ccc(O)c(C)c1NC(=O)c1cnc(Nc2ccn(CC(C)(C)O)n2)s1` [BAA-038], the 50% inhibitory concentration (IC50) in assay [1] (setting [5]) is less than 0.05 µM; in assay [2] (setting [6]) it was 1 to 11 µM. Also, in assay [2] (setting [7]), the “PKMYT1 vs. WEE1 selectivity” value is recorded as “X (100-<1000 fold)”. For the same molecule, the “Selectivity ratio KYSE30 Gl50 vs. OVCAR3 Gl50” value in assay [3] is “Y (>20 fold)”. In addition, in assay [4], the GI50 is greater than 5 µM.
For `Cc1cn(C)nc1Nc1ncc(C(=O)Nc2c(C)ccc(O)c2C)s1` [BAA-123, 2-[(1,4-dimethylpyrazol-3-yl)amino]-N-(3-hydroxy-2,6-dimethyl-phenyl)thiazole-5-carboxamide] the same measures were less than 0.05 µM, 1 to 11 µM, “X (100-<1000 fold)”, “Y (>20 fold)” and greater than 5 µM.
Taken in the same sequence, the figures for `Cc1ccc(O)c(C)c1NC(=O)c1cnc(Nc2nn(C)c(C)c2C)s1` [BAA-128, N-(3-hydroxy-2,6-dimethyl-phenyl)-2-[(1,4,5-trimethylpyrazol-3-yl)amino]thiazole-5-carboxamide] were 0.05 to 1 µM, 1 to 11 µM, “X (100-<1000 fold)”, “Y (>20 fold)” and greater than 5 µM.
For `Cc1ccc(O)c(C)c1NC(=O)c1cnc(Nc2cc(C)n(C3CCCC3)n2)s1` [BAA-232, 2-((1-cyclopentyl-5-methyl-1H-pyrazol-3-yl)amino)-N-(3-hydroxy-2,6-dimethylphenyl)thiazole-5-carboxamide] the same measures were less than 0.05 µM, 1 to 11 µM, “W (10-<100 fold)”, “Y (>20 fold)” and greater than 5 µM.
Take `Cc1ccc(O)c(C)c1NC(=O)c1cnc(Nc2cc(C)n(C(C)C)n2)s1` [BAA-233, N-(3-hydroxy-2,6-dimethylphenyl)-2-((1-isopropyl-5-methyl-1H-pyrazol-3-yl)amino)thiazole-5-carboxamide]: the concentration for half-maximal inhibition (IC50) in assay [1] (setting [5]) was less than 0.05 µM; in assay [2] (setting [6]) it was 0.05 to 1 µM. Also, the “PKMYT1 vs. WEE1 selectivity” value in assay [2] (setting [7]) is “W (10-<100 fold)”. The “Selectivity ratio KYSE30 Gl50 vs. OVCAR3 Gl50” value in assay [3] is “Y (>20 fold)”. In assay [4], the GI50 is greater than 5 µM.
`Cc1ccc(O)c(C)c1NC(=O)c1cnc(Nc2cc(C)n(CC(C)C)n2)s1` [BAA-237, N-(3-hydroxy-2,6-dimethylphenyl)-2-((1-isobutyl-5-methyl-1H-pyrazol-3-yl)amino)thiazole-5-carboxamide]: the IC50 was less than 0.05 µM in assay [1] (setting [5]) and 1 to 11 µM in assay [2] (setting [6]). In assay [2] (setting [7]), the “PKMYT1 vs. WEE1 selectivity” value is recorded as “W (10-<100 fold)”. The “Selectivity ratio KYSE30 Gl50 vs. OVCAR3 Gl50” value in assay [3] is listed as “Y (>20 fold)”. Further, in assay [4], the GI50 lay within 0.5 to 5 µM.
For `Cc1ccc(O)c(C)c1NC(=O)c1cnc(Nc2cccc(N3CCC(N)CC3)n2)s1` [BAA-274, 2-((6-(4-aminopiperidin-1-yl)pyridin-2-yl)amino)-N-(3-hydroxy-2,6-dimethylphenyl)thiazole-5-carboxamide] the same measures were less than 0.05 µM, 1 to 11 µM, “W (10-<100 fold)”, “Y (>20 fold)” and 0.5 to 5 µM.
For `Cc1ccc(O)c(C)c1NC(=O)c1cnc(Nc2cc(-c3ccc(F)cc3)ccn2)s1` [BAA-294, 2-((4-(4-fluorophenyl)pyridin-2-yl)amino)-N-(3-hydroxy-2,6-dimethylphenyl)thiazole-5-carboxamide] the same measures were 0.05 to 1 µM, greater than 11 µM, “X (100-<1000 fold)”, “Y (>20 fold)” and greater than 5 µM.
Taken in the same sequence, the figures for `Cc1ccc(O)c(C)c1NC(=O)c1cnc(Nc2cccc(-c3ccc(F)cc3)n2)s1` [BAA-306, 2-((6-(4-fluorophenyl)pyridin-2-yl)amino)-N-(3-hydroxy-2,6-dimethylphenyl)thiazole-5-carboxamide] were 0.05 to 1 µM, greater than 11 µM, “X (100-<1000 fold)”, “X (3-20 fold)” and 0.5 to 5 µM.
With `Cc1c(O)cc(Br)c(C)c1NC(=O)c1cnc(Nc2nn(C3CCS(=O)(=O)C3)c(C)c2Br)s1` (centres unmarked) [BAA-557, 2-((4-Bromo-1-(1,1-dioxidotetrahydrothiophen-3-yl)-5-methyl-1H-pyrazol-3-yl)amino)-N-(3-bromo-5-hydroxy-2.6-dimethylphenyl)thiazole-5-carboxamide], the IC50 in assay [1] (setting [8]) fell in the range of 1 to 11 µM. Besides, the “Selectivity ratio KYSE30 Gl50 vs. OVCAR3 Gl50” value in assay [3] was “Y (>20 fold)”. In addition, the GI50 in assay [4] is greater than 5 µM.
Take `Cc1ccc(O)c(C)c1NC(=O)c1cnc(Nc2n[nH]cc2Br)s1` [BAA-579, 2-((4-Bromo-1H-pyrazol-3-yl)amino)-N-(3-hydroxy-2,6-dimethylphenyl)thiazole-5-carboxamide]: the IC50 is less than 0.05 µM in assay [1] (setting [8]) and 1 to 11 µM in assay [2] (WEE1 15 nM, banded values). In addition, in assay [2] (banded), the “PKMYT1 vs. WEE1 selectivity” value is recorded as “X (100-<1000 fold)”.
For `Cc1ccc(O)c(C)c1NC(=O)c1cnc(Nc2nccc3ccncc23)s1` [BAA-602, 2-((2,7-naphthyridin-1-yl)amino)-N-(3-hydroxy-2,6-dimethylphenyl)thiazole-5-carboxamide] the same measures were 0.05 to 1 µM, greater than 11 µM and “X (100-<1000 fold)”.
For `Cc1ccc(O)c(C)c1NC(=O)c1cnc(Nc2nccc3ncccc23)s1` [BAA-603, 2-((1,6-naphthyridin-5-yl)amino)-N-(3-hydroxy-2,6-dimethylphenyl)thiazole-5-carboxamide] the same measures were 0.05 to 1 µM, greater than 11 µM and “X (100-<1000 fold)”.
Taken in the same sequence, the figures for `CCN(CC)C(=O)Cn1cc(C)c(Nc2ncc(C(=O)Nc3c(C)cc(Br)c(O)c3C)s2)n1` [BAA-608, N-(4-bromo-3-hydroxy-2,6-dimethylphenyl)-2-((1-(2-(diethylamino)-2-oxoethyl)-4-methyl-1H-pyrazol-3-yl)amino)thiazole-5-carboxamide] were 0.05 to 1 µM, greater than 11 µM and “X (100-<1000 fold)”.
